Experimental data from patent US10093713B2, “GIP-GLP-1 dual agonist compounds and methods” (priority 2013, dated 2018).
Read-outs that look alike come from different tables or passages of the source. *1 amine or outer side, *2 acyl side, *3 side chain or, on linkers, in order; H or OH if unused. Where a SMILES comes first, the peptide text is derived from it. Side-chain parts run from the residue outwards. [ ]: non-standard residue; d: D form. The star is where a group is joined. X1 = O=C(O)CCCCCCCCCCCCCCCCCCC(=O)N1CCN(CC(=O)*)CC1; C20 diacid = O=C(O)CCCCCCCCCCCCCCCCCCC(=O)*; C18 diacid = O=C(O)CCCCCCCCCCCCCCCCC(=O)*; γGlu = O=C(O)[C@H](CCC(=O)[*:2])N[*:1]; AEEA = NCCOCCOCC(=O)O; Aib = CC(C)(N)C(=O)O

Assays:
[1] = molecular target: T1, human GIP R (Homo sapiens, UniProt P48546); experiment: Human GIP receptor (GIP R) activity assay, cAMP induction (AlphaScreen) in HEK293 cells; format: cell-based; conditions: read-out: hGIP-R cAMP EC50 average value
T1 construct: expressed in transfected cells
T1 sequence (P48546 22-466): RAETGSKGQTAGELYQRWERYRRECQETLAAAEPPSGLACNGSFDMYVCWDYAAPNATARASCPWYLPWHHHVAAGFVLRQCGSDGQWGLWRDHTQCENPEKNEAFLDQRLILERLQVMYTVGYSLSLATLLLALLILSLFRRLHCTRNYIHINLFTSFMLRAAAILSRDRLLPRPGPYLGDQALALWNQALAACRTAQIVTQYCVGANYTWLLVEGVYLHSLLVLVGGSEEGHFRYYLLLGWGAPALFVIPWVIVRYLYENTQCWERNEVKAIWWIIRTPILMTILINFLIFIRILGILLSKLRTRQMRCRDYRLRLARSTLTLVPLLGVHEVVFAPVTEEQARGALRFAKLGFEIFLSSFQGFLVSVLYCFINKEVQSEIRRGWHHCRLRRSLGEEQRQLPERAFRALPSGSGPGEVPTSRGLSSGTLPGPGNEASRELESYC
Method in brief: (§1)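 Stable HEK293 clones expressing human GIP R or GLP-1 R, seeded 1 day before; cells washed in Tyrode's buffer (10 mM HEPES, pH 7.4), stimulated, then lysed. cAMP measured by AlphaScreen bead competition (1 h, room temperature, dark). EC50 = concentration giving half-maximal cAMP elevation, from curves of absolute cAMP (nM) vs log concentration.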

[2] = molecular target: T2, human GLP-1 R (Homo sapiens, UniProt P43220); experiment: Human GLP-1 receptor (GLP-1 R) activity assay, cAMP induction (AlphaScreen) in HEK293 cells; format: cell-based
T2 construct: expressed in transfected cells
T2 sequence (P43220 24-463): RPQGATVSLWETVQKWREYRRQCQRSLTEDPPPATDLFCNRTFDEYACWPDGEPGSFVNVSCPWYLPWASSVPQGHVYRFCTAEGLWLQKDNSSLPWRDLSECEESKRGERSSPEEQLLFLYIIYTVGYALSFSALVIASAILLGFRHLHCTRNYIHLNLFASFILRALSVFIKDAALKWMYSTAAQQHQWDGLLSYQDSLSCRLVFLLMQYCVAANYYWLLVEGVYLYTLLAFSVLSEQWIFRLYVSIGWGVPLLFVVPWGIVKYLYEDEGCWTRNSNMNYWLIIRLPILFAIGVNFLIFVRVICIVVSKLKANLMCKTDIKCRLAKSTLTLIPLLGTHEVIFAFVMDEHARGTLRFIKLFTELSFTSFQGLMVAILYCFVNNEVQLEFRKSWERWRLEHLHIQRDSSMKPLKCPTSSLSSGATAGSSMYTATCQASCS
Method in brief: as §1

[3] = Table 2a, secondary assay study
[4] = Table 2a, secondary assay study, read-out: hGLP1-R cAMP EC50 average value
[5] = Table 3, most comprehensive data
[6] = Table 3, most comprehensive data, read-out: hGLP-1-R cAMP EC50 average value
[7] = Table 2, HEK293 cells expressing human GIP R
[8] = Table 2, HEK293 cells expressing human GLP-1 R, read-out: hGLP1-R cAMP EC50 average value

Work on `CC[C@H](C)[C@H](NC(=O)[C@H](CO)NC(=O)[C@H](Cc1ccc(O)cc1)NC(=O)[C@H](CC(=O)O)NC(=O)[C@H](CO)NC(=O)[C@@H](NC(=O)[C@H](Cc1ccccc1)NC(=O)[C@@H](NC(=O)CNC(=O)[C@H](CCC(=O)O)NC(=O)C(C)(C)NC(=O)[C@@H](N)Cc1ccc(O)cc1)[C@@H](C)O)[C@@H](C)O)C(=O)N[C@@H](C)C(=O)N[C@@H](CC(C)C)C(=O)N[C@@H](CCC(=O)O)C(=O)N[C@@H](CCCCN)C(=O)N[C@@H](CCCCNC(=O)COCCOCCNC(=O)COCCOCCNC(=O)CC[C@H](NC(=O)CCCCCCCCCCCCCCCCC(=O)O)C(=O)O)C(=O)N[C@@H](C)C(=O)N[C@@H](CCC(N)=O)C(=O)N[C@@H](CCCNC(=N)N)C(=O)N[C@@H](C)C(=O)N[C@@H](Cc1ccccc1)C(=O)N[C@H](C(=O)N[C@@H](CCC(=O)O)C(=O)N[C@@H](Cc1c[nH]c2ccccc12)C(=O)N[C@@H](CC(C)C)C(=O)N[C@@H](CC(C)C)C(=O)N[C@@H](C)C(=O)N[C@@H](CCC(N)=O)C(=O)N[C@@H](CCCCN)C(N)=O)C(C)C` [Compound 17] (H-Y[Aib]EGTFTSDYSIALEKK([AEEA-AEEA-γGlu-C18 diacid])AQRAFVEWLLAQK-NH2) yielded an EC50 [1, 3] of 8 pM and an EC50 [2, 4] of 15 pM.

For `CC[C@H](C)[C@H](NC(=O)[C@H](CO)NC(=O)[C@H](Cc1ccc(O)cc1)NC(=O)[C@H](CC(=O)O)NC(=O)[C@H](CO)NC(=O)[C@@H](NC(=O)[C@H](Cc1ccccc1)NC(=O)[C@@H](NC(=O)CNC(=O)[C@H](CCC(=O)O)NC(=O)C(C)(C)NC(=O)[C@@H](N)Cc1ccc(O)cc1)[C@@H](C)O)[C@@H](C)O)C(=O)N[C@@H](C)C(=O)N[C@@H](CC(C)C)C(=O)N[C@@H](CC(=O)O)C(=O)N[C@@H](CCCCN)C(=O)N[C@@H](CCCCNC(=O)COCCOCCNC(=O)COCCOCCNC(=O)CC[C@H](NC(=O)CCCCCCCCCCCCCCCCCCC(=O)O)C(=O)O)C(=O)N[C@@H](C)C(=O)N[C@@H](CCC(N)=O)C(=O)N[C@@H](CCCCN)C(=O)N[C@@H](CCC(=O)O)C(=O)N[C@@H](Cc1ccccc1)C(=O)N[C@H](C(=O)N[C@@H](CCC(=O)O)C(=O)N[C@@H](Cc1c[nH]c2ccccc12)C(=O)N[C@@H](CC(C)C)C(=O)N[C@@H](CC(C)C)C(=O)N[C@@H](C)C(=O)N[C@@H](C)C(=O)NCC(=O)N1CCC[C@H]1C(=O)N[C@@H](CO)C(=O)N[C@@H](CO)C(=O)NCC(=O)N[C@@H](C)C(=O)N1CCC[C@H]1C(=O)N1CCC[C@H]1C(=O)N1CCC[C@H]1C(=O)N[C@@H](CO)C(N)=O)C(C)C` [Compound 49] (H-Y[Aib]EGTFTSDYSIALDKK([AEEA-AEEA-γGlu-C20 diacid])AQKEFVEWLLAAGPSSGAPPPS-NH2), the EC50 [1, 5] was 9 pM and the EC50 [2, 6] was 53 pM.

`CC[C@H](C)[C@H](NC(=O)[C@H](CO)NC(=O)[C@H](CC(C)C)NC(=O)[C@H](CC(=O)O)NC(=O)[C@H](CO)NC(=O)[C@@H](NC(=O)[C@H](Cc1ccccc1)NC(=O)[C@@H](NC(=O)CNC(=O)[C@H](CCC(=O)O)NC(=O)C(C)(C)NC(=O)[C@@H](N)Cc1ccc(O)cc1)[C@@H](C)O)[C@@H](C)O)C(=O)N[C@@H](C)C(=O)N[C@@H](CC(C)C)C(=O)N[C@@H](CC(=O)O)C(=O)N[C@@H](CCCCN)C(=O)N[C@@H](CCCCNC(=O)COCCOCCNC(=O)COCCOCCNC(=O)CC[C@H](NC(=O)CCCCCCCCCCCCCCCCC(=O)O)C(=O)O)C(=O)N[C@@H](C)C(=O)N[C@@H](CCC(N)=O)C(=O)N[C@@H](CCCNC(=N)N)C(=O)N[C@@H](C)C(=O)N[C@@H](Cc1ccccc1)C(=O)N[C@H](C(=O)N[C@@H](CC(N)=O)C(=O)N[C@@H](Cc1c[nH]c2ccccc12)C(=O)N[C@@H](CC(C)C)C(=O)N[C@H](C(=O)N[C@@H](C)C(=O)NC(C)(C)C(=O)N[C@@H](CCCCN)C(N)=O)C(C)C)C(C)C` [Compound 21] gave an EC50 [1, 3] of 10 pM and an EC50 [2, 4] of 10 pM.

With `CC[C@H](C)[C@H](NC(=O)[C@H](CO)NC(=O)[C@H](Cc1ccc(O)cc1)NC(=O)[C@H](CC(=O)O)NC(=O)[C@H](CO)NC(=O)[C@@H](NC(=O)[C@H](Cc1ccccc1)NC(=O)[C@@H](NC(=O)CNC(=O)[C@H](CCC(=O)O)NC(=O)C(C)(C)NC(=O)[C@@H](N)Cc1ccc(O)cc1)[C@@H](C)O)[C@@H](C)O)C(=O)N[C@@H](C)C(=O)N[C@@H](CC(C)C)C(=O)N[C@@H](CC(=O)O)C(=O)N[C@@H](CCCCN)C(=O)N[C@@H](CCCCNC(=O)COCCOCCNC(=O)COCCOCCNC(=O)CC[C@H](NC(=O)CCCCCCCCCCCCCCCCC(=O)O)C(=O)O)C(=O)N[C@@H](C)C(=O)N[C@@H](CCC(N)=O)C(=O)N[C@@H](CCCNC(=N)N)C(=O)N[C@@H](C)C(=O)N[C@@H](Cc1ccccc1)C(=O)N[C@H](C(=O)N[C@@H](CC(N)=O)C(=O)N[C@@H](Cc1c[nH]c2ccccc12)C(=O)N[C@@H](CC(C)C)C(=O)N[C@H](C(=O)N[C@@H](C)C(=O)NC(C)(C)C(=O)N[C@@H](CCCCN)C(=O)N1CCC[C@H]1C(=O)N[C@@H](CO)C(=O)N[C@@H](CO)C(=O)NCC(=O)N[C@@H](C)C(=O)N1CCC[C@H]1C(=O)N1CCC[C@H]1C(=O)N1CCC[C@H]1C(=O)N[C@@H](CO)C(N)=O)C(C)C)C(C)C` [Compound 14] the EC50 [1, 7] was 6.4 pM, the EC50 [1, 5] was 6 pM and the EC50 [2, 8] was 8 pM. The EC50 [2, 6] was 8 pM.

With `CC[C@H](C)[C@H](NC(=O)[C@H](CO)NC(=O)[C@H](Cc1ccc(O)cc1)NC(=O)[C@H](CC(=O)O)NC(=O)[C@H](CO)NC(=O)[C@@H](NC(=O)[C@H](Cc1ccccc1)NC(=O)[C@@H](NC(=O)CNC(=O)[C@H](CCC(=O)O)NC(=O)C(C)(C)NC(=O)[C@@H](N)Cc1ccc(O)cc1)[C@@H](C)O)[C@@H](C)O)C(=O)N[C@@H](C)C(=O)N[C@@H](CC(C)C)C(=O)N[C@@H](CC(=O)O)C(=O)N[C@@H](CCCCN)C(=O)N[C@@H](CCCCNC(=O)COCCOCCNC(=O)COCCOCCNC(=O)CN1CCN(C(=O)CCCCCCCCCCCCCCCCCCC(=O)O)CC1)C(=O)N[C@@H](C)C(=O)N[C@@H](CCC(N)=O)C(=O)N[C@@H](CCCCN)C(=O)N[C@@H](CCC(=O)O)C(=O)N[C@@H](Cc1ccccc1)C(=O)N[C@H](C(=O)N[C@@H](CCC(=O)O)C(=O)N[C@@H](Cc1c[nH]c2ccccc12)C(=O)N[C@@H](CC(C)C)C(=O)N[C@@H](CC(C)C)C(=O)N[C@@H](C)C(=O)N[C@@H](C)C(=O)NCC(=O)N1CCC[C@H]1C(=O)N[C@@H](CO)C(=O)N[C@@H](CO)C(=O)NCC(=O)N[C@@H](C)C(=O)N1CCC[C@H]1C(=O)N1CCC[C@H]1C(=O)N1CCC[C@H]1C(=O)N[C@@H](CO)C(N)=O)C(C)C` [Compound 53] (H-Y[Aib]EGTFTSDYSIALDKK([AEEA-AEEA-X1])AQKEFVEWLLAAGPSSGAPPPS-NH2) the EC50 [1, 5] was 6 pM and the EC50 [2, 6] was 14 pM.

With `CC[C@H](C)[C@H](NC(=O)[C@H](CO)NC(=O)[C@H](Cc1ccc(O)cc1)NC(=O)[C@H](CC(=O)O)NC(=O)[C@H](CO)NC(=O)[C@@H](NC(=O)[C@H](Cc1ccccc1)NC(=O)[C@@H](NC(=O)CNC(=O)[C@H](CCC(=O)O)NC(=O)C(C)(C)NC(=O)[C@@H](N)Cc1ccc(O)cc1)[C@@H](C)O)[C@@H](C)O)C(=O)NC(C)(C)C(=O)N[C@@H](CC(C)C)C(=O)N[C@@H](CC(=O)O)C(=O)N[C@@H](CCCCN)C(=O)N[C@@H](CCCCNC(=O)COCCOCCNC(=O)COCCOCCNC(=O)CC[C@H](NC(=O)CCCCCCCCCCCCCCCCC(=O)O)C(=O)O)C(=O)N[C@@H](C)C(=O)N[C@@H](CCC(N)=O)C(=O)N[C@@H](CCCNC(=N)N)C(=O)N[C@@H](C)C(=O)N[C@@H](Cc1ccccc1)C(=O)N[C@H](C(=O)N[C@@H](CCC(=O)O)C(=O)N[C@@H](Cc1c[nH]c2ccccc12)C(=O)N[C@@H](CC(C)C)C(=O)N[C@@H](CC(C)C)C(=O)N[C@@H](C)C(=O)N[C@@H](CCC(N)=O)C(=O)NCC(=O)N1CCC[C@H]1C(=O)N[C@@H](CO)C(=O)N[C@@H](CO)C(=O)NCC(=O)N[C@@H](C)C(=O)N1CCC[C@H]1C(=O)N1CCC[C@H]1C(=O)N1CCC[C@H]1C(=O)N[C@@H](CO)C(N)=O)C(C)C` [Compound 11] (H-Y[Aib]EGTFTSDYSI[Aib]LDKK([AEEA-AEEA-γGlu-C18 diacid])AQRAFVEWLLAQGPSSGAPPPS-NH2) the EC50 [1, 7] was 4.7 pM, the EC50 [1, 3] was 5 pM and the EC50 [1, 5] was 5 pM. For the same compound, the EC50 [2, 8] was 13 pM and the EC50 [2, 4] was 13 pM.
